Data: article PMC8632988, “Inhibition of SYK and cSrc kinases can protect bone and cartilage in preclinical models of osteoarthritis and rheumatoid arthritis” (Scientific Reports, 2021)

Tests used:
Assay in all cases: Kinase selectivity profile assay
Assay type in all cases: biochemical
[1] = biological target: T1, LIMK2 (Homo sapiens, UniProt P53671); settings: 500 nM; relative to DMSO; read-out: Residual enzymatic activity
T1 construct: purchased Reaction Biology Corporation
How it was run: (§1)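 Radiometric kinase assay run by a standard protocol. Unbound phosphate was removed by washing filters in phosphoric acid, and product radioactivity gave percent remaining kinase activity versus DMSO vehicle reactions. Run in duplicate.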

[2] = biological target: T2, CDK2/Cyclin A1 (Homo sapiens, UniProt P24941); settings: 500 nM; relative to DMSO; read-out: Residual enzymatic activity
T2 construct: purchased Reaction Biology Corporation
How it was run: as §1

[3] = biological target: T3, MLCK2/MYLK2 (Homo sapiens, UniProt Q9H1R3); settings: 500 nM; relative to DMSO; read-out: Residual enzymatic activity
T3 construct: purchased Reaction Biology Corporation
How it was run: as §1

[4] = biological target: T4, PKN2/PRK2 (Homo sapiens, UniProt Q16513); settings: 500 nM; relative to DMSO; read-out: Residual enzymatic activity
T4 construct: purchased Reaction Biology Corporation
How it was run: as §1

[5] = biological target: T5, STK25/YSK1 (Homo sapiens, UniProt O00506); settings: 500 nM; relative to DMSO; read-out: Residual enzymatic activity
T5 construct: purchased Reaction Biology Corporation
How it was run: as §1

[6] = biological target: T6, WNK3 (Homo sapiens, UniProt Q9BYP7); settings: 500 nM; relative to DMSO; read-out: Residual enzymatic activity
T6 construct: purchased Reaction Biology Corporation
How it was run: as §1

[7] = biological target: T7, RSK4 (Homo sapiens, UniProt Q9UK32); settings: 500 nM; relative to DMSO; read-out: Residual enzymatic activity
T7 construct: purchased Reaction Biology Corporation
How it was run: as §1

[8] = biological target: T8, BRSK1 (Homo sapiens, UniProt Q8TDC3); settings: 500 nM; relative to DMSO; read-out: Residual enzymatic activity
T8 construct: purchased Reaction Biology Corporation
How it was run: as §1

[9] = biological target: T9, PASK (Homo sapiens, UniProt Q96RG2); settings: 500 nM; relative to DMSO; read-out: Residual enzymatic activity
T9 construct: purchased Reaction Biology Corporation
How it was run: as §1

[10] = biological target: T10, PKCtheta (Homo sapiens, UniProt Q04759); settings: 500 nM; relative to DMSO; read-out: Residual enzymatic activity
T10 construct: purchased Reaction Biology Corporation
How it was run: as §1

[11] = biological target: T11, HGK/MAP4K4 (Homo sapiens, UniProt O95819); settings: 500 nM; relative to DMSO; read-out: Residual enzymatic activity
T11 construct: purchased Reaction Biology Corporation
How it was run: as §1

[12] = biological target: T12, CK1g1 (Homo sapiens, UniProt Q9HCP0); settings: 500 nM; relative to DMSO; read-out: Residual enzymatic activity
T12 construct: purchased Reaction Biology Corporation
T12 sequence (Q9HCP0 whole entry): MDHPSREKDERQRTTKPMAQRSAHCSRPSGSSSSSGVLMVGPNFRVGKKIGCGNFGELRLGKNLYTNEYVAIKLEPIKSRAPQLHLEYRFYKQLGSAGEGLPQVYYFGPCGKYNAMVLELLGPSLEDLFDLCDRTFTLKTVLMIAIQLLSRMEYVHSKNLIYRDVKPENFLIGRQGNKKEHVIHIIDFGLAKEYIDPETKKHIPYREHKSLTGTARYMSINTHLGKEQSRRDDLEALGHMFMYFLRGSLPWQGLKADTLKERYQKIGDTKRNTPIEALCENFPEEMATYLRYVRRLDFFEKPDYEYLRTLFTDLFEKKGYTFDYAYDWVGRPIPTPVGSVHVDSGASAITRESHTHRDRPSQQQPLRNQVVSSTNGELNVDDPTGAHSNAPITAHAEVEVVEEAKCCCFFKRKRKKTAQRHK
How it was run: as §1

[13] = biological target: T13, FER (Homo sapiens, UniProt P16591); settings: 500 nM; relative to DMSO; read-out: Residual enzymatic activity
T13 construct: purchased Reaction Biology Corporation
How it was run: as §1

[14] = biological target: T14, PLK4/SAK (Homo sapiens, UniProt O00444); settings: 500 nM; relative to DMSO; read-out: Residual enzymatic activity
T14 construct: purchased Reaction Biology Corporation
How it was run: as §1

[15] = biological target: T15, CLK2 (Homo sapiens, UniProt P49760); settings: 500 nM; relative to DMSO; read-out: Residual enzymatic activity
T15 construct: purchased Reaction Biology Corporation
How it was run: as §1

[16] = biological target: T16, BLK (Homo sapiens, UniProt P51451)
T16 construct: purchased Reaction Biology Corporation (assay service)
T16 sequence (P51451 whole entry): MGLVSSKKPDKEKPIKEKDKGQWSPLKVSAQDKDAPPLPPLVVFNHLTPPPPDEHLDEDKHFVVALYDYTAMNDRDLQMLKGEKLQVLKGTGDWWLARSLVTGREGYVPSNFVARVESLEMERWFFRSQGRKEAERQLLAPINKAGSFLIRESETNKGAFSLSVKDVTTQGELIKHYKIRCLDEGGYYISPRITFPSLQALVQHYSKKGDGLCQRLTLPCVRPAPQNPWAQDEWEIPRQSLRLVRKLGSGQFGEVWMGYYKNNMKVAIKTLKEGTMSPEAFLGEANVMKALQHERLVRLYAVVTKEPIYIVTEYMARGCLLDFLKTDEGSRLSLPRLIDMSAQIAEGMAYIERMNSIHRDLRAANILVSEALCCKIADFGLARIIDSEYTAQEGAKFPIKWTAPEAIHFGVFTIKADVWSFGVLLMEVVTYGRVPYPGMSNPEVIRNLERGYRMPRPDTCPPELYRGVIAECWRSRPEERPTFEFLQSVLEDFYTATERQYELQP
How it was run: as §1

[17] = biological target: T17, SGK3/SGKL (Homo sapiens, UniProt Q96BR1); settings: 500 nM; relative to DMSO; read-out: Residual enzymatic activity
T17 construct: purchased Reaction Biology Corporation
T17 sequence (Q96BR1 whole entry): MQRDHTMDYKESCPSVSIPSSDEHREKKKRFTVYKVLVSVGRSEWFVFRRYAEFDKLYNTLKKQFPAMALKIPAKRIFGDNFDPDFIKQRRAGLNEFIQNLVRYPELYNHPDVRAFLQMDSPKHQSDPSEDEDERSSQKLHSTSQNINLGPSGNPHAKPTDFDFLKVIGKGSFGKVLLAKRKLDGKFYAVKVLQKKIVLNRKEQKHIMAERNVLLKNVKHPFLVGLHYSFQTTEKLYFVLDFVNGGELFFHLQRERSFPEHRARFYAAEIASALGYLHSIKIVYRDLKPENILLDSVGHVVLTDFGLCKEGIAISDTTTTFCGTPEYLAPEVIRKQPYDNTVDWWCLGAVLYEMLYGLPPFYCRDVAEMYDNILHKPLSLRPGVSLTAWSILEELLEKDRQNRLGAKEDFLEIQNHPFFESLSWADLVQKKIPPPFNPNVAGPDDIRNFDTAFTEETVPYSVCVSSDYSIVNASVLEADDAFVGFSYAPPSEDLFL
How it was run: as §1

[18] = biological target: T18, AKT3 (Homo sapiens, UniProt Q9Y243); settings: 500 nM; relative to DMSO; read-out: Residual enzymatic activity
T18 construct: purchased Reaction Biology Corporation
How it was run: as §1

[19] = biological target: T19, IKKe/IKBKE (Homo sapiens, UniProt Q14164); settings: 500 nM; relative to DMSO; read-out: Residual enzymatic activity
T19 construct: purchased Reaction Biology Corporation
How it was run: as §1

[20] = biological target: T20, PBK/TOPK (Homo sapiens, UniProt Q96KB5); settings: 500 nM; relative to DMSO; read-out: Residual enzymatic activity
T20 construct: purchased Reaction Biology Corporation
T20 sequence (Q96KB5 whole entry): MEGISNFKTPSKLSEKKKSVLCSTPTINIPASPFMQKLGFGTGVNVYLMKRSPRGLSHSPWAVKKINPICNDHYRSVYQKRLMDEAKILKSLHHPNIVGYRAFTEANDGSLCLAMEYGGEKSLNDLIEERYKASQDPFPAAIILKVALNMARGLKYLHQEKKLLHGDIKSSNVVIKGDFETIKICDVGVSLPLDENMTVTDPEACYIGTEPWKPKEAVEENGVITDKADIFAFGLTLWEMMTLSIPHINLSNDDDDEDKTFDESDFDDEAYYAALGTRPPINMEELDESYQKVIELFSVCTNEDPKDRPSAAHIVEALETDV
How it was run: as §1

[21] = biological target: T21, IGF1R (Homo sapiens, UniProt P08069); settings: 500 nM; relative to DMSO; read-out: Residual enzymatic activity
T21 construct: purchased Reaction Biology Corporation
How it was run: as §1

[22] = biological target: T22, FGR (Homo sapiens, UniProt P09769)
T22 construct: purchased Reaction Biology Corporation (assay service)
T22 sequence (P09769 whole entry): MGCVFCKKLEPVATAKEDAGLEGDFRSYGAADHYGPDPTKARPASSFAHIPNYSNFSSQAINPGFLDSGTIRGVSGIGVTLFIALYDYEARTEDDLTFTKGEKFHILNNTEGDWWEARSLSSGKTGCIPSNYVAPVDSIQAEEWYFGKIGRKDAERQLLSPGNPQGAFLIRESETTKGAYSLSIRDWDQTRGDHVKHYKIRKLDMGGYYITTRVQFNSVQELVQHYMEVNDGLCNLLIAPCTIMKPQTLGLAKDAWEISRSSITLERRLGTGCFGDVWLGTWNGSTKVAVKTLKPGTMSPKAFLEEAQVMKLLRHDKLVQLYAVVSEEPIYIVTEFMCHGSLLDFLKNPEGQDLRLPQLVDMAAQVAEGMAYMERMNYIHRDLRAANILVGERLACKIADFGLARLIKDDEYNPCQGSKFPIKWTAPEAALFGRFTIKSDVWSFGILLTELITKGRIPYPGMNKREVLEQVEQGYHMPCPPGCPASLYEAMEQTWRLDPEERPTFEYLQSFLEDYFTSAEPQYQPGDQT
How it was run: as §1

[23] = biological target: T23, FGFR4 (Homo sapiens, UniProt P22455); settings: 500 nM; relative to DMSO
T23 construct: purchased Reaction Biology Corporation
T23 sequence (P22455 22-802): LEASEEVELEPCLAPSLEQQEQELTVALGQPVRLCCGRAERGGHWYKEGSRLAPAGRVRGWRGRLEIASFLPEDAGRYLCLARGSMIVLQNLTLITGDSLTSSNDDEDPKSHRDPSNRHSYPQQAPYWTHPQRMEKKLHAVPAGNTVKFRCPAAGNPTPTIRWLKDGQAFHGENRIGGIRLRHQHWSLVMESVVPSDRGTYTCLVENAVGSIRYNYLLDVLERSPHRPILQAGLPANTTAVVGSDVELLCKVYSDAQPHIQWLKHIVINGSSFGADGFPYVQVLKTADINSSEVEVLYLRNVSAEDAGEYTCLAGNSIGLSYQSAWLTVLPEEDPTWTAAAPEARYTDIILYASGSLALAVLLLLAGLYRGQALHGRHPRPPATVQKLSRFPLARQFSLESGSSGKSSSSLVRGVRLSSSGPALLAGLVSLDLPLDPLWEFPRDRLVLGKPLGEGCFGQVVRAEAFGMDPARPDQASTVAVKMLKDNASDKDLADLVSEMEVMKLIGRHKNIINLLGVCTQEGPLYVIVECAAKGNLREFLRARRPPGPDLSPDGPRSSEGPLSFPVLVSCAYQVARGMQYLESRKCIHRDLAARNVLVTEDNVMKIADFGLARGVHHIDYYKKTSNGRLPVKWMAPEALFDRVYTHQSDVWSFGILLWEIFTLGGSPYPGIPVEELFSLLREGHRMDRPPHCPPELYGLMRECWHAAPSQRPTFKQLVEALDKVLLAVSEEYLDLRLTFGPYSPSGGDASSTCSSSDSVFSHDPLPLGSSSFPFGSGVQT
How it was run: as §1

[24] = biological target: T24, BMPR2 (Homo sapiens, UniProt Q13873); settings: 500 nM; relative to DMSO; read-out: Residual enzymatic activity
T24 construct: purchased Reaction Biology Corporation
How it was run: as §1

[25] = biological target: T25, MEK1 (Homo sapiens, UniProt Q02750); settings: 500 nM, relative to DMSO
T25 construct: purchased Reaction Biology Corporation
T25 sequence (Q02750 whole entry): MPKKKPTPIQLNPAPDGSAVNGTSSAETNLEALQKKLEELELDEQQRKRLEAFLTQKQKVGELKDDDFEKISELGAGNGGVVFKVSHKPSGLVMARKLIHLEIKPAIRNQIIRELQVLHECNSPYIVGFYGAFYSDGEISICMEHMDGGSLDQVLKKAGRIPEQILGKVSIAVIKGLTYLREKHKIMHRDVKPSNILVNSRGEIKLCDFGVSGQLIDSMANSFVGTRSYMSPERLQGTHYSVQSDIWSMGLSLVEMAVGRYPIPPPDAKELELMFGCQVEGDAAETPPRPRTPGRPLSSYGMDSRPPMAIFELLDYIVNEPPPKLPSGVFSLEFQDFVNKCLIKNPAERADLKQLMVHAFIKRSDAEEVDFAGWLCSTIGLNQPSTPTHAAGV
How it was run: as §1

[26] = biological target: T26, MEK2 (Homo sapiens, UniProt P36507); settings: 500 nM; relative to DMSO; read-out: Residual enzymatic activity
T26 construct: purchased Reaction Biology Corporation
How it was run: as §1

[27] = biological target: T27, RSK1 (Homo sapiens, UniProt Q15418); settings: 500 nM; relative to DMSO; read-out: Residual enzymatic activity
T27 construct: purchased Reaction Biology Corporation
How it was run: as §1

[28] = biological target: T28, PKCmu/PRKD1 (Homo sapiens, UniProt Q15139); settings: 500 nM; relative to DMSO; read-out: Residual enzymatic activity
T28 construct: purchased Reaction Biology Corporation
How it was run: as §1

[29] = biological target: T29, CDC7/DBF4 (Homo sapiens, UniProt O00311); settings: 500 nM; relative to DMSO; read-out: Residual enzymatic activity
T29 construct: purchased Reaction Biology Corporation
How it was run: as §1

[30] = biological target: T30, CHK1 (Homo sapiens, UniProt O14757); settings: 500 nM; relative to DMSO; read-out: Residual enzymatic activity
T30 construct: purchased Reaction Biology Corporation
How it was run: as §1

[31] = biological target: T31, TLK1 (Homo sapiens, UniProt Q9UKI8); settings: 500 nM; relative to DMSO; read-out: Residual enzymatic activity
T31 construct: purchased Reaction Biology Corporation
How it was run: as §1

[32] = biological target: T32, HIPK3 (Homo sapiens, UniProt Q9H422); settings: 500 nM; relative to DMSO; read-out: Residual enzymatic activity
T32 construct: purchased Reaction Biology Corporation
How it was run: as §1

[33] = biological target: T33, PAK6 (Homo sapiens, UniProt Q9NQU5); settings: 500 nM; relative to DMSO; read-out: Residual enzymatic activity
T33 construct: purchased Reaction Biology Corporation
How it was run: as §1

[34] = biological target: T34, STK33 (Homo sapiens, UniProt Q9BYT3); settings: 500 nM; relative to DMSO; read-out: Residual enzymatic activity
T34 construct: purchased Reaction Biology Corporation
How it was run: as §1

[35] = biological target: T35, DYRK2 (Homo sapiens, UniProt Q92630); settings: 500 nM; relative to DMSO; read-out: Residual enzymatic activity
T35 construct: purchased Reaction Biology Corporation
T35 sequence (Q92630 whole entry): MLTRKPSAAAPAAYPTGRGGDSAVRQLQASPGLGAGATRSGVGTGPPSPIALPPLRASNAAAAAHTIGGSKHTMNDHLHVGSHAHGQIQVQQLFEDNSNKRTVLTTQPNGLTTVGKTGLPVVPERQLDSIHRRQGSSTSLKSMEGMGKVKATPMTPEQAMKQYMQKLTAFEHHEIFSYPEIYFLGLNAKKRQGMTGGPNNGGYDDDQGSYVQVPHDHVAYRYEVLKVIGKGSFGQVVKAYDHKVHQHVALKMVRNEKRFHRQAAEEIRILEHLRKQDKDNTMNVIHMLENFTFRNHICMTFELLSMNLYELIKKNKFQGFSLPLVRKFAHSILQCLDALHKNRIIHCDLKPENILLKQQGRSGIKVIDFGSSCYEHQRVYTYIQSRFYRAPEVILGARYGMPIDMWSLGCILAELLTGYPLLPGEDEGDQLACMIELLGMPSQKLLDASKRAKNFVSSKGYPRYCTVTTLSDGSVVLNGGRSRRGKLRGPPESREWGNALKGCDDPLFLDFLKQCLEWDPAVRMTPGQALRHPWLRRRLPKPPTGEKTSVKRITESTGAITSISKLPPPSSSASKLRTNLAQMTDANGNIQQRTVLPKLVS
How it was run: as §1

[36] = biological target: T36, CK1d (Homo sapiens, UniProt P48730); settings: 500 nM; relative to DMSO; read-out: Residual enzymatic activity
T36 construct: purchased Reaction Biology Corporation
How it was run: as §1

[37] = biological target: T37, TRKB (Homo sapiens, UniProt Q16620); settings: 500 nM; relative to DMSO; read-out: Residual enzymatic activity
T37 construct: purchased Reaction Biology Corporation
How it was run: as §1

[38] = biological target: T38, CK2a2 (Homo sapiens, UniProt P19784); settings: 500 nM; relative to DMSO; read-out: Residual enzymatic activity
T38 construct: purchased Reaction Biology Corporation
How it was run: as §1

[39] = biological target: T39, MSK1/RPS6KA5 (Homo sapiens, UniProt O75582); settings: 500 nM; relative to DMSO; read-out: Residual enzymatic activity
T39 construct: purchased Reaction Biology Corporation
How it was run: as §1

[40] = biological target: T40, TRKA (Homo sapiens, UniProt P04629); settings: 500 nM; relative to DMSO; read-out: Residual enzymatic activity
T40 construct: purchased Reaction Biology Corporation
How it was run: as §1

[41] = 500 nM, relative to DMSO, read-out: Residual enzymatic activity
[42] = 10-dose mode, threefold serial dilution from 10 μM

T1 sequence (P53671 whole entry): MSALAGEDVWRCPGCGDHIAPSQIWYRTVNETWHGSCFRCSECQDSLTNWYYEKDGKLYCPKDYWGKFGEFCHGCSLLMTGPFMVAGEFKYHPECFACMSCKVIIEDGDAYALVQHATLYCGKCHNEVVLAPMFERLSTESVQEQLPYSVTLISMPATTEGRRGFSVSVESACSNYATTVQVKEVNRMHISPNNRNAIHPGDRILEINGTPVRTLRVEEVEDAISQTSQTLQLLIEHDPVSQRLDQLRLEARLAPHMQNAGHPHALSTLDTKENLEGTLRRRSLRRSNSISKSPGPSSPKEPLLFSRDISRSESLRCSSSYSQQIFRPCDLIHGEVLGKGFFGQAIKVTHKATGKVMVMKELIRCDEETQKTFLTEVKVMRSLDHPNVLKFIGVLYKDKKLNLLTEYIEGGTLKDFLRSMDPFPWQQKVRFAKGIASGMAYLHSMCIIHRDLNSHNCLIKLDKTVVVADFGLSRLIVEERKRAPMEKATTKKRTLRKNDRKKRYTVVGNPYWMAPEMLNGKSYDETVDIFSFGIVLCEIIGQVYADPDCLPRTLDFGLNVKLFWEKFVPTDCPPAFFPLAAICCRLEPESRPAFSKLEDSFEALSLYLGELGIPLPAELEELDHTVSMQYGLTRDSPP

COc1cc(Nc2ncnc(Nc3cc4c(cn3)NC(=O)C(C)(C)O4)n2)cc(OC)c1OC [MT-SYK-03]
remaining activity at 0.5 µM [1]: 84.9% | remaining activity at 0.5 µM [2]: 90.7% | remaining activity at 0.5 µM [3]: 105% | remaining activity at 0.5 µM [4]: 95.6% | remaining activity at 0.5 µM [5]: 105% | remaining activity at 0.5 µM [6]: 82.4% | remaining activity at 0.5 µM [7]: 99.7% | remaining activity at 0.5 µM [8]: 92.6% | remaining activity at 0.5 µM [9]: 102% | remaining activity at 0.5 µM [10]: 102% | remaining activity at 0.5 µM [11]: 78.4% | remaining activity at 0.5 µM [12]: 93.5% | remaining activity at 0.5 µM [13]: 78.8% | remaining activity at 0.5 µM [14]: 77.8% | remaining activity at 0.5 µM [15]: 94.5% | remaining activity at 0.5 µM [16, 41]: 19.8% | IC50 [16, 42]: 9.6 nM | inhibition at 0.5 µM ([16]; read-out: Inhibition at 500 nM): > 90% | remaining activity at 0.5 µM [17]: 103% | remaining activity at 0.5 µM [18]: 103% | remaining activity at 0.5 µM [19]: 77.5% | remaining activity at 0.5 µM [20]: 102% | remaining activity at 0.5 µM [21]: 90% | remaining activity at 0.5 µM [22, 41]: 22.6% | IC50 [22, 42]: 9 nM | Residual enzymatic activity [23]: 95.7% | remaining activity at 0.5 µM [24]: 90% | Residual enzymatic activity [25]: did not inhibit any | remaining activity at 0.5 µM ([25]; read-out: Residual enzymatic activity): 107% | remaining activity at 0.5 µM [26]: 97.2% | remaining activity at 0.5 µM [27]: 105% | remaining activity at 0.5 µM [28]: 98.5% | remaining activity at 0.5 µM [29]: 102% | remaining activity at 0.5 µM [30]: 91.4% | remaining activity at 0.5 µM [31]: 101% | remaining activity at 0.5 µM [32]: 110% | remaining activity at 0.5 µM [33]: 96.5% | remaining activity at 0.5 µM [34]: 70.5% | remaining activity at 0.5 µM [35]: 104% | remaining activity at 0.5 µM [36]: 86.5% | remaining activity at 0.5 µM [37]: 92.4% | remaining activity at 0.5 µM [38]: 66% | remaining activity at 0.5 µM [39]: 106% | remaining activity at 0.5 µM [40]: 82.5%
